The source of these data is ChEMBL document CHEMBL1136167, “Prediction of hERG potassium channel affinity by traditional and hologram qSAR methods” (Bioorg Med Chem Lett, 2003).

Molecules are shown by their SMILES.

For one data set, the target named is T1, Voltage-gated inwardly rectifying potassium channel KCNH2 (Homo sapiens, UniProt Q12809). Nature of the data set: Inhibition of K+ channel activity in mammalian cells expressing HERG Kv11.1.
T1 sequence (Q12809 whole entry): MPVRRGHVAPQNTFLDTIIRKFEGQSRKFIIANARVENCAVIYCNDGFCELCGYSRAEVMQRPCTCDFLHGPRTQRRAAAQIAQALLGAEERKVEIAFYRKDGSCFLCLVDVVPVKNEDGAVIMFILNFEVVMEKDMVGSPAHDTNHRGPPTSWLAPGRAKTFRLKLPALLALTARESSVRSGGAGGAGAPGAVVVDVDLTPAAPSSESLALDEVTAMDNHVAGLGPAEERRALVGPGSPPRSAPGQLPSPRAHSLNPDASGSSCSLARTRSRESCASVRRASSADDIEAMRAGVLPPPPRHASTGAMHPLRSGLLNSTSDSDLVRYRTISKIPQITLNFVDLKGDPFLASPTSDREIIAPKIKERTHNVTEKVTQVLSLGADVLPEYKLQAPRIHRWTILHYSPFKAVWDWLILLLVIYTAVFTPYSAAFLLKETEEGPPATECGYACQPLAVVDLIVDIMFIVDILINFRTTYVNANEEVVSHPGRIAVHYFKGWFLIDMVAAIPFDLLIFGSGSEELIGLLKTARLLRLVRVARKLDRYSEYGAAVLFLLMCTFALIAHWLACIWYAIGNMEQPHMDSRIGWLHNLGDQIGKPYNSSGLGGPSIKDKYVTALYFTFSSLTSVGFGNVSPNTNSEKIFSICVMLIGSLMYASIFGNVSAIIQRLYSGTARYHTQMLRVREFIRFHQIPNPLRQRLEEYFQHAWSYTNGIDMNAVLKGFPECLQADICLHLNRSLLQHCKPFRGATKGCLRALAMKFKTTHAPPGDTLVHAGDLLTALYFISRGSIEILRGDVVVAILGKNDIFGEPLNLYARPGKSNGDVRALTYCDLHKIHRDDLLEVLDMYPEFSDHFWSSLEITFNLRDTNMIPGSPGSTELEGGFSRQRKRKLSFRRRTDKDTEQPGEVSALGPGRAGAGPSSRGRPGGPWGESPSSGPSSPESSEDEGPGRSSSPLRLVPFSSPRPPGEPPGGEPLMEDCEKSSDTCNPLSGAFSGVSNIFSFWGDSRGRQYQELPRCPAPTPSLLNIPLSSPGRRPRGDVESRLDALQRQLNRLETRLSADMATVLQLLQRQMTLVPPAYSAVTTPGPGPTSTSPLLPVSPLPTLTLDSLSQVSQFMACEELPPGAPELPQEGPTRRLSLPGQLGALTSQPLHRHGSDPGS
Details: not given
Type of data set: cell-based.
On to `CC[C@H]1OC(=O)[C@H](C)[C@@H](O[C@H]2C[C@@](C)(OC)[C@@H](O)[C@H](C)O2)[C@H](C)[C@@H](O[C@@H]2O[C@H](C)C[C@H](N(C)C)[C@H]2O)[C@](C)(OC)C[C@@H](C)C(=O)[C@H](C)[C@@H](O)[C@]1(C)O` [CLARITHROMYCIN], for which the 50% inhibitory concentration (IC50) (as a rule, the concentration that inhibits the measured activity by half) is 33.1 µM.

A further data set addresses T1, Voltage-gated inwardly rectifying potassium channel KCNH2. Kind of data set: Inhibition of human Potassium channel HERG expressed in mammalian cells.
Details: not given
In turn, `O=C(O[C@H]1C[C@@H]2C[C@@H]3C[C@@H](C1)N2CC3=O)C1CNc2ccccc21` (some centres undefined) had an IC50 of 5.89 µM.
For `COc1ccc(C2CCN(CCC3CCOc4ccccc43)CC2)cc1OC` (centres undefined), the IC50 was 0.2 µM.
`CC[C@H]1OC(=O)[C@H](C)[C@@H](O[C@H]2C[C@@](C)(OC)[C@@H](O)[C@H](C)O2)[C@H](C)[C@@H](O[C@@H]2O[C@H](C)C[C@H](N(C)C)[C@H]2O)[C@](C)(OC)C[C@@H](C)C(=O)[C@H](C)[C@@H](O)[C@]1(C)O` [CLARITHROMYCIN] had an IC50 of 58.9 µM.
For the molecule `Oc1ccc(CCN2CCC(Nc3nc4ccccc4n3Cc3ccc(F)cc3)CC2)cc1` [DESMETHEYLASTEMIZOLE], the half-maximal inhibitory concentration (IC50) was 0.001 µM.
Same read-out and setting: the result for `COc1c(N2CCNC(C)C2)c(F)cc2c(=O)c(C(=O)O)cn(C3CC3)c12` (centres undefined) [GATIFLOXACIN] reads 129 µM; that for `CN(c1nccc(=O)[nH]1)C1CCN(c2nc3ccccc3n2Cc2ccc(F)cc2)CC1` [MIZOLASTINE], 0.437 µM.
On the same count and under the same terms, the result for `CN1CCC[C@H]1c1cccnc1` [NICOTINE] reads 245 µM; that for `CCOC(=O)C1=C(C)NC(C)=C(C(=O)OC)C1c1cccc([N+](=O)[O-])c1` (centres undefined) [NITRENDIPINE], 10 µM.
Same read-out and setting: the result for `Cc1cc2c(s1)Nc1ccccc1N=C2N1CCN(C)CC1` [OLANZAPINE] reads 0.182 µM.
Molecule `C[C@@H]1CN(c2c(F)c(N)c3c(=O)c(C(=O)O)cn(C4CC4)c3c2F)C[C@H](C)N1` [SPARFLOXACIN] had an IC50 of 18.2 µM.
Same read-out and setting: the result for `COc1ccc(C2CCN(CC[C@H]3CCOc4ccccc43)CC2)cc1OC` [TERIKALANT] reads 0.251 µM; that for `COc1ccc(C(=O)N2CCN(c3ccc4c(c3)CCC(=O)N4)CC2)cc1OC` [VESNARINONE], 1.1 µM.

Staying with this data set, now noted: human.
For `Cc1c(F)c(N2CCNC(C)C2)cc2c1c(=O)c(C(=O)O)cn2C1CC1` (centres undefined) [GREPAFLOXACIN], the pIC50 – broadly, the IC50 on a negative log10 scale, so that one unit is a factor of ten – was found to be […].
